Here are results for three compounds from patent US4791116A, “N,N-diethyl-N'-[(8α)-1-ethyl-6-methyl-ergolin-8-yl]-sulfamide useful as prolactin secretion inhibitor, anti-parkinson agents and anti-depressant agents” (priority 1983, dated 1988).

Broadly, the ED50 is the midpoint of the dose-response relation.

The subject of series [1] is central dopamine receptor. The experiment in a line: Ungerstedt test: turning in rats lesioned unilaterally with 6-hydroxy-dopamine (anti-parkinson). Type of series: in vivo, rat. As for the experimental part:
In particular the compounds are useful as central dopamine receptor agents for the treatment of e.g. Morbus Parkinson as indicated in standard tests. For example in rates lesioned unilaterally in the nigro-neostratal dopamine pathway by the effect of a 6-hydroxy-dopamine injection in the substantia nigra the compounds at doses of between about 3 and about 30 mg/kg p.o., according to the method of U.Ungerstedt Acta.physiol.scand.Suppl.387, 69-93 (1971) and substantially the same as that described by J. M. Vigouret et al., Pharmacology 16 (Suppl.1) 156-193 (1978), induce turning in the direction of the non-denerved side over a long period of time, e.g. several hours.

Another series relates to implantation. Briefly: inhibition of implantation in female rats. Type of series: in vivo. The settings on record: Rattus norvegicus, sc, read-out: ED50 Implantation. An excerpt: The effects are for an unexpectedly long period e.g. several hours.
A short description of series [2]: tolerability in the beagle dog. Type of series: in vivo. The settings on record: p.o.

Like-named read-outs stand apart in the source and are kept apart here.

Turning to `CCN(CC)S(=O)(=O)N[C@H]1C[C@@H]2c3cccc4c3c(cn4C(C)C)C[C@H]2N(C)C1` [Example 2, N,N-Diethyl-N'-[(8α)-1-isopropyl-6-methylergolin-8-yl]sulfamide], the “Ungerstedt test, No of rotations” value in series [1] (3 mg/kg p.o., over 7 hours) was found to be 1608. In the series with implantation (female rats, s.c.), the ED50 was 0.08 mg/kg.

`CC(C)C[C@H]1C(=O)N2CCC[C@H]2[C@]2(O)O[C@](NC(=O)[C@@H]3C=C4c5cccc6[nH]c(Br)c(c56)C[C@H]4N(C)C3)(C(C)C)C(=O)N12` [Bromocriptine, reference compound]: the “Ungerstedt test, No of rotations” value in series [1] (at 0.1 mg/kg s.c.) amounted to 80. Further, in the series with implantation, the median effective dose (ED50) worked out at 0.75 mg/kg.

As to `CCN(CC)S(=O)(=O)N[C@H]1C[C@@H]2c3cccc4c3c(cn4CC)C[C@H]2N(C)C1` [Example 1, N,N-Diethyl-N'-[(8α)-1-ethyl-6-methyl-ergolin-8-yl]-sulfamide], the emetic effects entry in series [2] was “few emetic effects”. Moreover, in series [1] (3 mg/kg p.o., over 7 hours), the “Ungerstedt test, No of rotations” value was determined as 774. In series [1] (comparison with prolactin secretion tests), the “anti-parkinson activity relative to prolactin secretion activity” value is recorded as “particularly patent anti-parkinson activity relative to prolactin secretion activity”. Further, the ED50 with implantation (female rats, s.c.) came out at 0.23 mg/kg.
